# Results from PubChem BioAssay (NCI).
#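 The compound was tested at five concentrations on cells cultured in 96-well plates, with a 48-hour exposure period. At the GI50, growth is halved. TGI: concentration producing complete growth inhibition.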
# Tests used:
# Assay in all cases: growth of human tumour cells (NCI), 48 h
# NCI-H226 lung = system: NCI-H226 lung
# NCI-H23 lung = system: NCI-H23 lung
# NCI-H460 lung = system: NCI-H460 lung
# NCI-H522 lung = system: NCI-H522 lung
# NCI/ADR-RES ovarian = system: NCI/ADR-RES ovarian
# OVCAR-3 ovarian = system: OVCAR-3 ovarian
# OVCAR-4 ovarian = system: OVCAR-4 ovarian
# OVCAR-5 ovarian = system: OVCAR-5 ovarian
# OVCAR-8 ovarian = system: OVCAR-8 ovarian
# PC-3 prostate = system: PC-3 prostate
# RPMI-8226 leukemia = system: RPMI-8226 leukemia
# RXF 393 renal = system: RXF 393 renal
# SF-268 CNS = system: SF-268 CNS
# SF-295 CNS = system: SF-295 CNS
# SF-539 CNS = system: SF-539 CNS
# SK-MEL-2 melanoma = system: SK-MEL-2 melanoma
# SK-MEL-28 melanoma = system: SK-MEL-28 melanoma
# SK-MEL-5 melanoma = system: SK-MEL-5 melanoma
# SK-OV-3 ovarian = system: SK-OV-3 ovarian
# SN12C renal = system: SN12C renal
# SNB-19 CNS = system: SNB-19 CNS
# SNB-75 CNS = system: SNB-75 CNS
# SR leukemia = system: SR leukemia
# SW-620 colon = system: SW-620 colon
# T-47D breast = system: T-47D breast
# TK-10 renal = system: TK-10 renal
# U251 CNS = system: U251 CNS
# UACC-257 melanoma = system: UACC-257 melanoma
# UACC-62 melanoma = system: UACC-62 melanoma
smiles,measurement,setting,value
CC(=O)O[C@@H]1C2=C(C)C3(CC3)[C@@](C)(O)C(=O)C2=C[C@@]1(C)CO,GI50,NCI-H226 lung,2120 nM
same,TGI,NCI-H226 lung,5220 nM
same,GI50,NCI-H23 lung,473 nM
same,TGI,NCI-H23 lung,2660 nM
same,GI50,NCI-H460 lung,296 nM
same,TGI,NCI-H460 lung,1080 nM
same,GI50,NCI-H522 lung,496 nM
same,TGI,NCI-H522 lung,4440 nM
same,GI50,NCI/ADR-RES ovarian,416 nM
same,TGI,NCI/ADR-RES ovarian,4110 nM
same,GI50,OVCAR-3 ovarian,319 nM
same,TGI,OVCAR-3 ovarian,1160 nM
same,GI50,OVCAR-4 ovarian,674 nM
same,TGI,OVCAR-4 ovarian,4440 nM
same,GI50,OVCAR-5 ovarian,427 nM
same,GI50,OVCAR-8 ovarian,427 nM
same,TGI,OVCAR-8 ovarian,> 100000 nM
same,GI50,PC-3 prostate,1020 nM
same,TGI,PC-3 prostate,12300 nM
same,GI50,RPMI-8226 leukemia,372 nM
same,TGI,RPMI-8226 leukemia,3140 nM
same,GI50,RXF 393 renal,240 nM
same,TGI,RXF 393 renal,658 nM
same,GI50,SF-268 CNS,357 nM
same,TGI,SF-268 CNS,2790 nM
same,GI50,SF-295 CNS,406 nM
same,TGI,SF-295 CNS,9870 nM
same,GI50,SF-539 CNS,1020 nM
same,TGI,SF-539 CNS,3380 nM
same,GI50,SK-MEL-2 melanoma,1860 nM
same,TGI,SK-MEL-2 melanoma,4430 nM
same,GI50,SK-MEL-28 melanoma,1980 nM
same,TGI,SK-MEL-28 melanoma,4520 nM
same,GI50,SK-MEL-5 melanoma,1730 nM
same,TGI,SK-MEL-5 melanoma,3200 nM
same,GI50,SK-OV-3 ovarian,1550 nM
same,TGI,SK-OV-3 ovarian,8010 nM
same,GI50,SN12C renal,1860 nM
same,TGI,SN12C renal,13900 nM
same,GI50,SNB-19 CNS,1080 nM
same,TGI,SNB-19 CNS,9600 nM
same,GI50,SNB-75 CNS,217 nM
same,TGI,SNB-75 CNS,1380 nM
same,GI50,SR leukemia,271 nM
same,TGI,SR leukemia,> 100000 nM
same,GI50,SW-620 colon,355 nM
same,TGI,SW-620 colon,> 100000 nM
same,GI50,T-47D breast,635 nM
same,TGI,T-47D breast,7030 nM
same,GI50,TK-10 renal,2600 nM
same,TGI,TK-10 renal,> 100000 nM
same,GI50,U251 CNS,396 nM
same,TGI,U251 CNS,> 36100 nM
same,GI50,UACC-257 melanoma,1650 nM
same,TGI,UACC-257 melanoma,5380 nM
same,GI50,UACC-62 melanoma,1710 nM
same,TGI,UACC-62 melanoma,3590 nM
